Assay results from PubChem BioAssay AID1963853 (Molecular Pharmacology Branch, DTP, NCI, 2024).

System: 266295-075-R-J1-PDC spheroid viability
Test: Anticancer human tumor 266295-075-R-J1-PDC patient-derived head and neck squamous carcinoma cell line growth inhibition [POLQ]
Settings: spheroids with HUVEC and MSC; for IC50: curve of first compound; for viability, T/C: stronger effect = lower value
Procedure: Multicellular complex tumor spheroid response to Polymerase (POL) inhibitors (novobiocin, ART-558, RP6685) in combination with a variety of drugs and investigational agents in selected tumor cell lines
The POL inhibitors (novobiocin, ART-558, and RP6685) were evaluated both individually and in combination with standard of care and investigational anticancer small molecules within a complex spheroid model of solid tumors. . Complex spheroids include a stromal component modeled by human endothelial cells (HUVEC) and fibroblasts modeled by human mesenchymal stem cells (MSCs). The concentration ranges selected for each drug and investigational agent were based upon clinically achievable concentrations if the clinical Cmax of the agent was known.
Compounds. The drugs and investigational agents: novobiocin (NSC847541), ART-558 (NSC835418), RP-6685 (NSC848927), peposertib (NSC802822), ceralasertib (NSC780249), elimusertib (NSC800525), camonsertib (NSC841442), AZD-1390 (NSC803789), olaparib (NSC753686), talazoparib (NSC767125), rucaparib (NSC756644), sotorasib (NSC818433), MRTX-1133 (NSC836407), SN-38 (NSC673596), topotecan (NSC609699), epotoside (NSC141540), doxorubicin (NSC123127), gemcitabine (NSC613327), 5-fluorouracil (NSC19893), paclitaxel (NSC125973), vemurafenib (NSC761431), MSA-2 (NSC828583), SN-011 (NSC837082), adavosertib (NSC754352), prexasertib (NSC758257), carboplatin (NSC241240) and oxaliplatin (NSC266046), were obtained from the National Cancer Institute (NCI) Developmental Therapeutics Program Chemical Repository (21). The FDA-approved anticancer drug set is available from the Developmental Therapeutics Program at https://dtp.cancer.gov/organization/dscb/obtaining/. […] The stock solutions were prepared in dimethyl sulfoxide (DMSO, Sigma-Aldrich, St. Louis, MO, cat. D2650), except for the platinum compounds which were prepared in saline (Quality Biological, Gaithersburg, MD, cat. 114-055-101), at 800-fold the tested concentration and stored at -70 degrees C prior to their use. All drugs and investigational agents were tested over a range starting from a high concentration at or near the clinical Cmax and decreasing in half-log increments. If the clinical Cmax for an agent had not been determined, the highest concentration tested was 10 microM, except for SN-38, which was tested at a high concentration of 1 microM.
Cell Culture. All cells were maintained in an incubator at 37 degrees C and 5% CO2 with 95% humidity. The PDC lines were cultured according to standard operating procedures established by the NCI PDMR (https://pdmr.cancer.gov). Table 3 of the manuscript, lists the cell lines along with the number of the three cell types plated to form the mct-spheroids and media for tumor cell growth. After thawing, all PDC lines, except 997537-175-T-J1-PDC and 415267-285-R-J2-PDC, were cultured in Matrigel-coated flasks prepared with a working solution of 1X Ham's F-12 nutrient mix, without supplementation (Thermo Fisher Scientific, cat. 11765054), 100 U/mL penicillin-streptomycin (Thermo Fisher Scientific, cat. 15140122), and 2.5% Matrigel (Corning Inc., Corning, NY, cat. 354248) for the first three passages. The two PDC lines 997537-175-T-J1-PDC and 415267-285-R-J2-PDC were cultured on uncoated flasks. The 857933-349-R-J2-PDC line was cultured in 6C/Colon 1B media containing advanced DMEM/F-12 (Thermo Fisher Scientific, cat. 12634028), 10 mM HEPES (Thermo Fisher Scientific, cat. 15630080), 1X GlutaMAX supplement (Thermo Fisher Scientific, cat. 35050061), 0.1 mg/mL primocin (InvivoGen, San Diego, CA, cat. ant-pm-2), 10% defined fetal bovine serum, heat inactivated (HyClone Laboratories Inc., Logan, UT, cat. SH30070.03HI), 50% L-WRN conditioned media (ATCC, cat. CRL-3276), 1.25 mM N-Acetyl-L-cysteine (Sigma-Aldrich, cat. A9165), 10 mM nicotinamide (Sigma-Aldrich, cat. N0636), 1X B-27 supplement (Thermo Fisher Scientific, cat. 17504044), 1X N-2 supplement (Thermo Fisher Scientific, cat. […]

[1] = second compound 0.0316 µM, first compound 0.0316 µM
[2] = second compound 0.0316 µM, first compound 0.1 µM
[3] = second compound 0.0316 µM, first compound 0.316 µM
[4] = second compound 0.0316 µM, first compound 1 µM
[5] = second compound 0.0316 µM, first compound 3.16 µM
[6] = second compound 0.0316 µM, first compound 10 µM
[7] = second compound 0.1 µM, first compound 0.0316 µM
[8] = second compound 0.1 µM, first compound 0.1 µM
[9] = second compound 0.1 µM, first compound 0.316 µM
[10] = second compound 0.1 µM, first compound 1 µM
[11] = second compound 0.1 µM, first compound 3.16 µM
[12] = second compound 0.1 µM, first compound 10 µM
[13] = second compound 0.316 µM, first compound 0.0316 µM
[14] = second compound 0.316 µM, first compound 0.1 µM
[15] = second compound 0.316 µM, first compound 0.316 µM
[16] = second compound 0.316 µM, first compound 1 µM
[17] = second compound 0.316 µM, first compound 3.16 µM
[18] = second compound 0.316 µM, first compound 10 µM
[19] = second compound 1 µM, first compound 0.0316 µM
[20] = second compound 1 µM, first compound 0.1 µM
[21] = second compound 1 µM, first compound 0.316 µM
[22] = second compound 1 µM, first compound 1 µM
[23] = second compound 1 µM, first compound 3.16 µM
[24] = second compound 1 µM, first compound 10 µM
[25] = second compound 3.16 µM, first compound 0.0316 µM
[26] = second compound 3.16 µM, first compound 0.1 µM
[27] = second compound 3.16 µM, first compound 0.316 µM
[28] = second compound 3.16 µM, first compound 1 µM
[29] = second compound 3.16 µM, first compound 3.16 µM
[30] = second compound 3.16 µM, first compound 10 µM
[31] = second compound 10 µM, first compound 0.0316 µM
[32] = second compound 10 µM, first compound 0.1 µM
[33] = second compound 10 µM, first compound 0.316 µM
[34] = second compound 10 µM, first compound 1 µM
[35] = second compound 10 µM, first compound 3.16 µM
[36] = second compound 10 µM, first compound 10 µM
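Also: spheroids exposed to compounds for seven days before readout.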

CCCS(=O)(=O)Nc1ccc(F)c(C(=O)c2c[nH]c3ncc(-c4ccc(Cl)cc4)cc23)c1F + Cc1cccc(N(C)C(=O)C2C(O)CCN2c2nc(C)cc(C(F)(F)F)c2C#N)c1
IC50 (second compound 0.0316 µM): > 10 µM
IC50 (second compound 0.1 µM): > 10 µM
IC50 (second compound 0.316 µM): > 10 µM
IC50 (second compound 1 µM): > 10 µM
IC50 (second compound 3.16 µM): > 10 µM
IC50 (second compound 10 µM): > 10 µM
viability, T/C [1]: 108%
viability, T/C [2]: 97.7%
viability, T/C [3]: 122%
viability, T/C [4]: 161%
viability, T/C [5]: 150%
viability, T/C [6]: 126%
viability, T/C [7]: 127%
viability, T/C [8]: 81.3%
viability, T/C [9]: 92.8%
viability, T/C [10]: 126%
viability, T/C [11]: 187%
viability, T/C [12]: 142%
viability, T/C [13]: 95.5%
viability, T/C [14]: 93%
viability, T/C [15]: 98.1%
viability, T/C [16]: 134%
viability, T/C [17]: 171%
viability, T/C [18]: 139%
viability, T/C [19]: 118%
viability, T/C [20]: 76.5%
viability, T/C [21]: 95.5%
viability, T/C [22]: 132%
viability, T/C [23]: 158%
viability, T/C [24]: 142%
viability, T/C [25]: 106%
viability, T/C [26]: 100%
viability, T/C [27]: 96.6%
viability, T/C [28]: 111%
viability, T/C [29]: 155%
viability, T/C [30]: 132%
viability, T/C [31]: 96.3%
viability, T/C [32]: 137%
viability, T/C [33]: 113%
viability, T/C [34]: 111%
viability, T/C [35]: 187%
viability, T/C [36]: 134%

CC1COCCN1c1cc(C2(S(C)(=N)=O)CC2)nc(-c2ccnc3[nH]ccc23)n1 (centres undefined) + COC1C(OC(N)=O)C(O)C(Oc2ccc3c(O)c(NC(=O)c4ccc(O)c(CC=C(C)C)c4)c(=O)oc3c2C)OC1(C)C
IC50 (second compound 0.0316 µM): > 10 µM
IC50 (second compound 0.1 µM): > 10 µM
IC50 (second compound 0.316 µM): > 10 µM
IC50 (second compound 1 µM): > 10 µM
IC50 (second compound 3.16 µM): > 10 µM
IC50 (second compound 10 µM): > 10 µM
viability, T/C [1]: 101%
viability, T/C [2]: 82.5%
viability, T/C [3]: 105%
viability, T/C [4]: 77.9%
viability, T/C [5]: 74.9%
viability, T/C [6]: 56.8%
viability, T/C [7]: 82.6%
viability, T/C [8]: 87.9%
viability, T/C [9]: 89.6%
viability, T/C [10]: 87.9%
viability, T/C [11]: 82.7%
viability, T/C [12]: 63.5%
viability, T/C [13]: 89.2%
viability, T/C [14]: 86.8%
viability, T/C [15]: 101%
viability, T/C [16]: 81.1%
viability, T/C [17]: 94.7%
viability, T/C [18]: 52.2%
viability, T/C [19]: 95.4%
viability, T/C [20]: 105%
viability, T/C [21]: 95.2%
viability, T/C [22]: 92.7%
viability, T/C [23]: 78.2%
viability, T/C [24]: 62.2%
viability, T/C [25]: 105%
viability, T/C [26]: 93.6%
viability, T/C [27]: 91.9%
viability, T/C [28]: 81.9%
viability, T/C [29]: 79.1%
viability, T/C [30]: 63.1%
viability, T/C [31]: 92.4%
viability, T/C [32]: 105%
viability, T/C [33]: 88.9%
viability, T/C [34]: 72.5%
viability, T/C [35]: 68.8%
viability, T/C [36]: 56.1%
